Counter-ions that a name gives are not always drawn.

Experiment in all cases: Method 1: intracellular Ca2+ release (FLIPR, Calcium 5) in recombinant CHO-K1 cells
Common to all, as to type: cell-based

For assay [1], the target named is T1, human S1PR5 receptor (Homo sapiens, UniProt Q9H228).
T1 construct: host or cells: CHO-K1
Particulars: agonist potency, determined with method 1 (symbols A-D); read-out: S1P5 EC50 range. The method, boiled down:
(§1)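 CHO-K1 cells co-expressing the receptor, aequorin and Gq/i5 were loaded with Calcium 5 dye 1 h at 37° C, then held 45 min at RT. Serially diluted compounds added in HBSS/20 mmol/L Hepes/2.5 mmol/L probenecid/0.1% BSA pH 7.4. FLIPR Tetra fluorescence, normalized to phospho-fingolimod, fitted for EC50.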

Assay [2] has as its target T2, human S1PR1 receptor (Homo sapiens, UniProt P21453).
T2 construct: host or cells: CHO-K1
Particulars: (1): determined with method 1; read-out: S1P1 EC50. The gist of the method:
as §1

The target of assay [3] is T3, human S1PR4 receptor (Homo sapiens, UniProt O95977).
T3 construct: host or cells: CHO-K1
T3 sequence (O95977 1-384): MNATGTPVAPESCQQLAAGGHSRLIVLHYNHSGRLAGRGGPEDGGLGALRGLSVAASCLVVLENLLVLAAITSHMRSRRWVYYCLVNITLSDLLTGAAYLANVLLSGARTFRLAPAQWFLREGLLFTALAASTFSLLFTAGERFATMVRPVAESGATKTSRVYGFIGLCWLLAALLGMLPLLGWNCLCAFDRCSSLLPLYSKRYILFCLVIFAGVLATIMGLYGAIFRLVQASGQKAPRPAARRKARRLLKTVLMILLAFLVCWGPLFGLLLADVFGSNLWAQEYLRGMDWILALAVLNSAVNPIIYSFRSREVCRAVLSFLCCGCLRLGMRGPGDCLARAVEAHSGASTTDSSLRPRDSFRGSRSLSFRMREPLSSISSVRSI
Particulars: (1): determined with method 1; read-out: S1P4 EC50. The gist of the method:
as §1

Assay [4] addresses T4, human S1PR3 receptor (Homo sapiens, UniProt Q99500).
T4 construct: host or cells: CHO-K1
Particulars: (1): determined with method 1; read-out: S1P3 EC50. The method, boiled down: as §1

T1 sequence (Q9H228 whole entry): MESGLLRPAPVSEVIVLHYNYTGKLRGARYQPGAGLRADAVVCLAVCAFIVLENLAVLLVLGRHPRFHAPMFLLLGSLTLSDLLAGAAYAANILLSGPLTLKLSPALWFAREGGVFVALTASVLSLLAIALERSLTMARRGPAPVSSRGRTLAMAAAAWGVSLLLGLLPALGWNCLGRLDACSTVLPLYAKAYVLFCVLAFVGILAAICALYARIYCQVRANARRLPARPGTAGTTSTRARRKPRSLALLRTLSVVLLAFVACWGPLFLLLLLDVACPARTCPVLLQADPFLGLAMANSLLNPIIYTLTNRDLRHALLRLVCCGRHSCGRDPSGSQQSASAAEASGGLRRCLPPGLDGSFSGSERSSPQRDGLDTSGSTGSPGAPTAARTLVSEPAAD
T2 sequence (P21453 whole entry): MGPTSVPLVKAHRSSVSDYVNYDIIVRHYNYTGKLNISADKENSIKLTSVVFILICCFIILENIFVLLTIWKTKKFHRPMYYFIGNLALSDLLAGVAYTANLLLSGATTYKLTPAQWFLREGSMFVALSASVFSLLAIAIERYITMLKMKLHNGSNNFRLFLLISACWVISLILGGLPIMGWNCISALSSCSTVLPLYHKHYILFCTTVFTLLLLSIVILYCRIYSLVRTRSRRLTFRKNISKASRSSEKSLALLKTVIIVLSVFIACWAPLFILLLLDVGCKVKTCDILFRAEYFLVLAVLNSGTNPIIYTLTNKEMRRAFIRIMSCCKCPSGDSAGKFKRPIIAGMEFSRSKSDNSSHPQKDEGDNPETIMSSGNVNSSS
T4 sequence (Q99500 whole entry): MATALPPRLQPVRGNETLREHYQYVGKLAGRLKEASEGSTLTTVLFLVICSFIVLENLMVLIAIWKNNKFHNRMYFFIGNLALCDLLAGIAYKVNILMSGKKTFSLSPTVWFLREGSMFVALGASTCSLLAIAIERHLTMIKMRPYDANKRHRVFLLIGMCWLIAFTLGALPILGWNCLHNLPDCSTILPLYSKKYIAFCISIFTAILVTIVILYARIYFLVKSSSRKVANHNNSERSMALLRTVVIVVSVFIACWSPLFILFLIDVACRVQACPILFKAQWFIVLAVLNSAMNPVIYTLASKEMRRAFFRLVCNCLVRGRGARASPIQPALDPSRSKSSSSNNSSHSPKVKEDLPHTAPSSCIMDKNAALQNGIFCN

In the case of `CC(CC(=O)O)CN1CCc2nc(-c3ccc(OCc4ccc(C(C)(C)C)cc4)cc3F)ncc2C1` (stereo not drawn) [Compound 283, 4-[2-[4-[(4-tert-butylphenyl)methoxy]-2-fluoro-phenyl]-7,8-dihydro-5H-pyrido[4,3-d]pyrimidin-6-yl]-3-methyl-butanoic acid 2,2,2-trifluoroacetic acid salt], the EC50 (commonly the concentration at which the effect is half-maximal) is 10 to 100 nM in assay [1], greater than 1000 nM in assay [2], greater than 1000 nM in assay [3] and greater than 1000 nM in assay [4].
For `O=C(O)CCN1CCc2nc(-c3ccc(OCc4cccc(C(F)(F)F)c4)cc3)ccc2C1` [Compound 157, 3-(2-(4-((3-trifluoromethylbenzyl)oxy)phenyl)-7,8-dihydro-1,6-naphthyridin-6(5H)-yl)propanoic acid], the EC50 in assay [1] is less than 10 nM; in assay [2] it was greater than 1000 nM; in assay [3], greater than 1000 nM; in assay [4], greater than 1000 nM.
In the case of `O=C(O)C1CC(N2CCc3nc(C#Cc4ccc(F)cc4)ncc3C2)C1` (stereo not drawn) [Compound 57, 3-(2-((4-fluorophenyl)ethynyl)-7,8-dihydropyrido[4,3-d]pyrimidin-6(5H)-yl)cyclobutanecarboxylic acid], the EC50 in assay [1] is 1000 to 10000 nM; in assay [2], greater than 1000 nM; in assay [3] it was greater than 1000 nM; in assay [4], greater than 1000 nM.
For the compound `O=C(O)C1CC(N2CCc3nc(C#Cc4cc(F)cc(F)c4)ncc3C2)C1` (stereo not drawn) [Compound 61, 3-(2-((3,5-difluorophenyl)ethynyl)-7,8-dihydropyrido[4,3-d]pyrimidin-6(5H)-yl)cyclobutanecarboxylic acid], the EC50 was 1000 to 10000 nM in assay [1], greater than 1000 nM in assay [2], greater than 1000 nM in assay [3] and greater than 1000 nM in assay [4].
As to `CC(CC(=O)O)CN1CCc2nc(-c3ccc(OCc4cccc(F)c4)cc3)ncc2C1` (stereo not drawn) [Compound 227, 4-(2-(4-((3-fluorobenzyl)oxy)phenyl)-7,8-dihydropyrido[4,3-d]pyrimidin-6(5H)-yl)-3-methylbutanoic acid], the EC50 is less than 10 nM in assay [1], greater than 1000 nM in assay [2], less than 1000 nM in assay [3] and greater than 1000 nM in assay [4].
Take `O=C(O)CCN1CCc2nc(-c3ccc(OCc4cccc(F)c4)cc3)ccc2C1` [Compound 133, 3-(2-(4-((3-fluorobenzyl)oxy)phenyl)-7,8-dihydro-1,6-naphthyridin-6(5H)-yl)propanoic acid]: the EC50 was less than 10 nM in assay [1], greater than 1000 nM in assay [2], greater than 1000 nM in assay [3] and greater than 1000 nM in assay [4].
Turning to `O=C(O)CN1CCc2nc(Cc3ccccc3)ncc2C1` [Compound 24, 2-(2-benzyl-7,8-dihydropyrido[4,3-d]pyrimidin-6(5H)-yl)acetic acid], the EC50 in assay [1] is 1000 to 10000 nM; in assay [2], greater than 1000 nM; in assay [3] it was greater than 1000 nM; in assay [4], greater than 1000 nM.
As for `O=C(O)CC1(CN2CCc3nc(-c4ccc(OCc5cccc(Cl)c5)cc4)ncc3C2)CC1` [Compound 285, 2-((4(2-(4-((3-chlorobenzyl)oxy)phenyl)-7,8-dihydropyrido[4,3-d]pyrimidin-6(5H)-yl)methyl)cyclopropyl)acetic acid], the EC50 in assay [1] was 100 to 1000 nM; in assay [2], greater than 1000 nM; in assay [3], less than 1000 nM; in assay [4], greater than 1000 nM.
For `CC(C)c1ccc(C#Cc2ccc3c(n2)CCN(C2CC(C(=O)O)C2)C3)cc1` (stereo not drawn) [Compound 124, 3-(2-((4-isopropylphenyl)ethynyl)-7,8-dihydro-1,6-naphthyridin-6(5H)-yl)cyclobutanecarboxylic acid], the EC50 was 1000 to 10000 nM in assay [1], greater than 1000 nM in assay [2], greater than 1000 nM in assay [3] and greater than 1000 nM in assay [4].
In the case of `CC(CC(=O)O)CN1CCc2nc(-c3ccc(OCc4ccc(Cl)cc4)cc3F)ncc2C1` (stereo not drawn) [Compound 236, 4-(2-(4-((4-chlorobenzyl)oxy)-2-fluorophenyl)-7,8-dihydropyrido[4,3-d]pyrimidin-6(5H)-yl)-3-methylbutanoic acid], the EC50 in assay [1] was less than 10 nM; in assay [2] it was greater than 1000 nM; in assay [3], greater than 1000 nM; in assay [4], greater than 1000 nM.
As to `CC(C)(CC(=O)O)CN1CCc2nc(-c3ccc(OCc4ccc(Cl)cc4)cc3)ncc2C1` [Compound 210, 4-(2-(4-((4-chlorobenzyl)oxy)phenyl)-7,8-dihydropyrido[4,3-d]pyrimidin-6(5H)-yl)-3,3-dimethylbutanoic acid], the EC50 in assay [1] is 1000 to 10000 nM; in assay [2], greater than 1000 nM; in assay [3], greater than 1000 nM; in assay [4], greater than 1000 nM.
As to `O=C(O)C1CC(N2CCc3nc(C#Cc4ccc(OCc5ccccc5)cc4)ncc3C2)C1` (stereo not drawn) [Compound 59, 3-(2-((4-(benzyloxy)phenyl)ethynyl)-7,8-dihydropyrido[4,3-d]pyrimidin-6(5H)-yl)cyclobutanecarboxylic acid], the EC50 in assay [1] is 1000 to 10000 nM; in assay [2] it was greater than 1000 nM; in assay [3], greater than 1000 nM; in assay [4], greater than 1000 nM.
With `O=C(O)CN1CCc2nc(-c3ccc(OCc4cccc(Cl)c4)cc3)ncc2C1` [Compound 32, 2-(2-(4-((3-chlorobenzyl)oxy)phenyl)-7,8-dihydropyrido[4,3-d]pyrimidin-6(5H)-yl)acetic acid], the EC50 was 100 to 1000 nM in assay [1], greater than 1000 nM in assay [2], greater than 1000 nM in assay [3] and greater than 1000 nM in assay [4].
Consider `O=C(O)CCN1CCc2nc(-c3ccc(OCc4cccc(OC(F)(F)F)c4)cc3)ncc2C1` [Compound 82, 3-(2-(4-((3-(trifluoromethoxy)benzyl)oxy)phenyl)-7,8-dihydropyrido[4,3-d]pyrimidin-6(5H)-yl)propanoic acid], for which the EC50 is less than 10 nM in assay [1], greater than 1000 nM in assay [2], greater than 1000 nM in assay [3] and greater than 1000 nM in assay [4].
As to `O=C(O)C1CC(N2CCc3nc(Cc4c(F)cccc4F)ncc3C2)C1` (stereo not drawn) [Compound 53, 3-(2-(2,6-difluorobenzyl)-7,8-dihydropyrido[4,3-d]pyrimidin-6(5H)-yl)cyclobutanecarboxylic acid], the EC50 in assay [1] is 1000 to 10000 nM; in assay [2] it was greater than 1000 nM; in assay [3], greater than 1000 nM; in assay [4], greater than 1000 nM.
As to `CCOc1ccc(C#Cc2ccc3c(n2)CCN(C2CC(C(=O)O)C2)C3)cc1` (stereo not drawn) [Compound 122, 3-(2-((4-ethoxyphenyl)ethynyl)-7,8-dihydro-1,6-naphthyridin-6(5H)-yl)cyclobutanecarboxylic acid], the EC50 in assay [1] was 1000 to 10000 nM; in assay [2], greater than 1000 nM; in assay [3], greater than 1000 nM; in assay [4], greater than 1000 nM.
In the case of `Cc1ccc(C(F)(F)F)c(COc2ccc(-c3ncc4c(n3)CCN(CC(C)CC(=O)O)C4)cc2)c1` (stereo not drawn) [Compound 275, 3-methyl-4-[2-[4-[[5-methyl-2-(trifluoromethyl)phenyl]methoxy]phenyl]-7,8-dihydro-5H-pyrido[4,3-d]pyrimidin-6-yl]butanoic acid 2,2,2-trifluoroacetic acid salt], the EC50 in assay [1] was 10 to 100 nM; in assay [2] it was greater than 1000 nM; in assay [3] it was greater than 1000 nM; in assay [4], greater than 1000 nM.
For `CC(CC(=O)O)CN1CCc2nc(-c3ccc(OCc4c(Cl)cccc4Cl)cc3)ncc2C1` (stereo not drawn) [Compound 243, 4-[2-[4-[(2,6-dichlorophenyl)methoxy]phenyl]-7,8-dihydro-5H-pyrido[4,3-d]pyrimidin-6-yl]-3-methyl-butanoic acid 2,2,2-trifluoroacetic acid salt], the EC50 in assay [1] is less than 10 nM; in assay [2] it was greater than 1000 nM; in assay [3] it was greater than 1000 nM; in assay [4] it was greater than 1000 nM.
With `Cc1ccc(COc2ccc(-c3ncc4c(n3)CCN(CC(C)CC(=O)O)C4)cc2)cc1` (stereo not drawn) [Compound 248, 3-methyl-4-(2-(4-((4-methylbenzyl)oxy)phenyl)-7,8-dihydropyrido[4,3-d]pyrimidin-6(5H)-yl)butanoic acid], the EC50 in assay [1] was less than 10 nM; in assay [2], less than 1000 nM; in assay [3], greater than 1000 nM; in assay [4], greater than 1000 nM.
Turning to `CC(CC(=O)O)CN1CCc2nc(-c3ccc(OCc4cccc(Cl)c4)cc3)ncc2C1` (stereo not drawn) [Compound 22, 4-(2-(4-((3-chlorobenzyl)oxy)phenyl)-7,8-dihydropyrido[4,3-d]pyrimidin-6(5H)-yl)-3-methylbutanoic acid], the EC50 was less than 10 nM in assay [1], greater than 1000 nM in assay [2], greater than 1000 nM in assay [3] and greater than 1000 nM in assay [4].
Take `Cc1cc(-c2ccc3c(n2)CCN(CCCC(=O)O)C3)ccc1OCc1ccccc1` [Compound 114, 4-(2-(4-(benzyloxy)-3-methylphenyl)-7,8-dihydro-1,6-naphthyridin-6(5H)-yl)butanoic acid]: the EC50 in assay [1] was less than 10 nM; in assay [2], greater than 1000 nM; in assay [3] it was greater than 1000 nM; in assay [4] it was greater than 1000 nM.

For the origin of these results see patent US10556907B2 (AbbVie Inc., priority 2015, dated 2020).
